# Test results as given in US9113629B2, “4-amino-6-(4-substituted-phenyl)-picolinates and 6-amino-2-(4-substituted-phenyl)-pyrimidine-4-carboxylates and their use as herbicides” (DOW AGROSCIENCES LLC, priority 2013, dated 2015).
# Read-outs that look alike come from different tables or passages of the source.
# Tests used:
# [1] = system: Key Broadleaf Weed and Crop Species; assay: Post-emergent Test II herbicidal activity (Table 5); format: in vivo; conditions: post-emergence, 336 h, 14 days after application; for pest or weed control at 70 g/ha: application rate 70 g ai/ha; for pest or weed control at 140 g/ha: application rate 140 g ai/ha
# How it was run: (§1)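 Test species were raised 7–21 d under greenhouse conditions until reaching the first or second true leaf, sprayed with formulated compound at 187 L/ha, and kept subirrigated to avoid wash-off. Fourteen days later, damage was rated visually on a 0–100% scale against untreated plants.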
# [2] = system: Key Grass and Sedge Weeds as well as Grass Crops; assay: Post-emergent Test II herbicidal activity (Table 6); format: in vivo; conditions: post-emergence, 336 h; for pest or weed control at 70 g/ha: 70 g ai/ha; for pest or weed control at 140 g/ha: 140 g ai/ha
# How it was run: as §1
# [3] = ABUTH: velvetleaf (Abutilon theophrasti), read-out: Visual Growth Reduction (%) 14 Days After Application, ABUTH
# [4] = AMARE: redroot pigweed (Amaranthus retroflexus), read-out: Visual Growth Reduction (%) 14 Days After Application, AMARE
# [5] = BRSNN: oilseed-rape, canola (Brassica napus), read-out: Visual Growth Reduction (%) 14 Days After Application, BRSNN
# [6] = CHEAL: lambsquarters (Chenopodium album), read-out: Visual Growth Reduction (%) 14 Days After Application, CHEAL
# [7] = EPHHL: wild poinsettia (Euphorbia heterophylla), read-out: Visual Growth Reduction (%) 14 Days After Application, EPHHL
# [8] = HELAN: sunflower (Helianthus annuus), read-out: Visual Growth Reduction (%) 14 Days After Application, HELAN
# [9] = VIOTR: wild pansy (Viola tricolor), read-out: Visual Growth Reduction (%) 14 Days After Application, VIOTR
# [10] = CYPES: yellow nutsedge (Cyperus esculentus), read-out: Visual Growth Reduction (%) 14 Days After Application, CYPES
# [11] = DIGSA: crabgrass (Digitaria sanguinalis), read-out: Visual Growth Reduction (%) 14 Days After Application, DIGSA
# [12] = ECHCG: barnyardgrass (Echinochloa crus-galli), read-out: Visual Growth Reduction (%) 14 Days After Application, ECHCG
# [13] = ORYSA: rice (Oryza sativa), crop, read-out: Visual Growth Reduction (%) 14 Days After Application, ORYSA
# [14] = SETFA: giant foxtail (Setaria faberi), read-out: Visual Growth Reduction (%) 14 Days After Application, SETFA
# [15] = SORVU: grain sorghum (Sorghum vulgare), read-out: Visual Growth Reduction (%) 14 Days After Application, SORVU
# [16] = TRZSS (wheat, Triticum aestivum), crop, read-out: Visual Growth Reduction (%) 14 Days After Application, TRZSS
# [17] = ZEAMX: maize, corn (Zea mays), crop, read-out: Visual Growth Reduction (%) 14 Days After Application, ZEAMX
Compound,"pest or weed control at 70 g/ha [1, 3] [%]","pest or weed control at 140 g/ha [1, 3] [%]","pest or weed control at 70 g/ha [1, 4] [%]","pest or weed control at 140 g/ha [1, 4] [%]","pest or weed control at 70 g/ha [1, 5] [%]","pest or weed control at 140 g/ha [1, 5] [%]","pest or weed control at 70 g/ha [1, 6] [%]","pest or weed control at 140 g/ha [1, 6] [%]","pest or weed control at 70 g/ha [1, 7] [%]","pest or weed control at 140 g/ha [1, 7] [%]","pest or weed control at 70 g/ha [1, 8] [%]","pest or weed control at 140 g/ha [1, 8] [%]","pest or weed control at 70 g/ha [1, 9] [%]","pest or weed control at 140 g/ha [1, 9] [%]","pest or weed control at 70 g/ha [2, 10] [%]","pest or weed control at 140 g/ha [2, 10] [%]","pest or weed control at 70 g/ha [2, 11] [%]","pest or weed control at 140 g/ha [2, 11] [%]","pest or weed control at 70 g/ha [2, 12] [%]","pest or weed control at 140 g/ha [2, 12] [%]",other results
COC(=O)c1nc(-c2ccc(I)c(F)c2)c(F)c(N)c1Cl [Compound 132],95 to 100,95 to 100,95 to 100,95 to 100,95 to 100,95 to 100,95 to 100,95 to 100,95 to 100,95 to 100,95 to 100,95 to 100,95 to 100,95 to 100,45 to 59,85 to 94,85 to 94,85 to 94,85 to 94,75 to 84,"pest or weed control at 70 g/ha [2, 13]: 0 to 29%; pest or weed control at 140 g/ha [2, 13]: 0 to 29%; pest or weed control at 70 g/ha [2, 14]: 0 to 29%; pest or weed control at 140 g/ha [2, 14]: 60 to 74%; pest or weed control at 70 g/ha [2, 15]: 85 to 94%; pest or weed control at 140 g/ha [2, 15]: 95 to 100%; pest or weed control at 70 g/ha [2, 16]: 0 to 29%; pest or weed control at 140 g/ha [2, 16]: 30 to 44%; pest or weed control at 70 g/ha [2, 17]: 95 to 100%; pest or weed control at 140 g/ha [2, 17]: 95 to 100%; melting point: 138 to 140 °C"
COc1c(N)nc(-c2ccc(I)cc2F)nc1C(=O)O [Compound 72],85 to 94,85 to 94,95 to 100,95 to 100,85 to 94,85 to 94,95 to 100,95 to 100,95 to 100,95 to 100,95 to 100,95 to 100,60 to 74,60 to 74,0 to 29,95 to 100,45 to 59,60 to 74,95 to 100,95 to 100,"pest or weed control at 70 g/ha [2, 13]: 0 to 29%; pest or weed control at 140 g/ha [2, 13]: 0 to 29%; pest or weed control at 70 g/ha [2, 14]: 45 to 59%; pest or weed control at 140 g/ha [2, 14]: 75 to 84%; pest or weed control at 70 g/ha [2, 15]: 85 to 94%; pest or weed control at 140 g/ha [2, 15]: 95 to 100%; pest or weed control at 70 g/ha [2, 16]: 60 to 74%; pest or weed control at 140 g/ha [2, 16]: 60 to 74%; pest or weed control at 70 g/ha [2, 17]: 60 to 74%; pest or weed control at 140 g/ha [2, 17]: 60 to 74%; melting point: 95 to 98 °C"
